Counter-ions that a name gives are not always drawn.
Target: T1, human flk-1 (Homo sapiens, UniProt P35968)
T1 construct: host or cells: Flk-1/NIH cells (NIH fibroblasts)
Experiment: Biochemical FLK-1 assay (flk-1 autophosphorylation ELISA)
Details: read-out: bio FLK1 IC50 (μM) % if inhibition at 100
Procedure: This assay evaluates flk-1 autophosphorylation activity in vitro using ELISA.
Materials And Reagents • 1. 15 cm tissue culture dishes • 2. Flk-1/NIH cells: NIH fibroblast line over-expressing human flk-1clone 3 (SUGEN, Inc., obtained from MPI, Martinsried, Germany). • 3. Growth medium: DMEM plus heat inactivated 10% FBS and 2 mM Glutamine (Gibco-BRL). • 4. Starvation medium: DMEM plus 0.5% heat-inactivated FBS, 2 mM Glutamine (Gibco-BRL). • 5. […] L4 or E38 monoclonal antibody specific for flk-1, Purified by Protein-A agarose affinity chromatography (SUGEN, Inc.). • 7. PBS (Dulbecco's Phosphate-Buffered Saline) Gibco Cat. No. 450-1300EB). • 8. HNTG (see BIOCHEMICAL FGFR for preparation). • 9. Pierce BCA protein determination kit. • 10. Blocking buffer • 11. TBST (pH 7.0) • 12. Kinase Buffer • 13. Kinase Stop Solution: 200 mM EDTA. • 14. […] AB kit (Vector Laboratories Cat. No. PK 4000). • 16. DMSO • 17. NUNC 96-well V bottom polypropylene plates (Applied Scientific Cat. No. AS-72092). • 18. Turbo-TMB (Pierce). • 19. Turbo-TMB stop solution: 1 M H2SO4. • 20. ATP (Sigma Cat. No. A-7699). • 21. 20% DMSO in TBS (pH 7.0). Procedure
Cell Growth and Lysate Preparation. • 1. Seed cell into growth medium and grow for 2-3 days to 90-100% confluency at 37° C. and 5% CO2.
2. Remove the medium and wash the cells twice with PBS. Lyse with HNTG lysis buffer. Collect all lysates and vortex mix them for 20-30 seconds. • 3. Remove insoluble material by centrifugation (5-10 min at about 10,000 ×g). • 4. Determine the protein concentration using BCA kit. • 5. Partition lysate into 1 mg aliquots, store at −80° C.
Assay Procedure • 1. Coat Corning 96-well ELISA plates with 2 μg/well purified L4 (or E 38) in 100 μl of PBS. Store overnight at […] • 2. Remove unbound proteins from wells by inverting the plate to remove the liquid. Wash one time with dH2O, pat plate on paper towel to remove excess liquid. • 3. Block plates with 150 μl blocking buffer per well. Incubate for 45-60 minutes with shaking at 4° C. • 4. Remove the blocking buffer and wash the ELISA plate three times with dH2O and one time with TBST. Pat plate on paper towel to remove excess liquid. • 5. Dilute lysate in PBS to give final concentration of 50 μg/100 μl. Add 100 μl of diluted lysate to each well. Incubate with shaking at 4° C. overnight. • 6. Remove unbound proteins from wells by inverting the plate. Wash as in step 4. • 7. Add 80 μl of kinase buffer to wells (90 μl to negative control wells). • 8. Dilute test compounds (normally 10-fold) into wells of a polypropylene plate containing 20% DMSO in TBS. • 9. Add 10 μl of the diluted compounds to the ELISA wells containing immobilized flk-1 and shake. Control wells receive no compounds. • 10. From stock 1 mM ATP, prepare 0.3 mM ATP solution in dH2O (alternatively, kinase buffer may be used). • 11. Add 10 μl of 0.3 mM ATP to all wells except the negative controls. Incubate for 60 min. at room temperature with shaking. • 12. After 1 hr stop the kinase reaction by adding 11 μl 200 mM EDTA. Shake for 1-2 min. • 13. Wash the ELISA plate 4 times with dH2O and twice with TBST. • 14. Add 100 μl of 1:5000 biotinylated 4G10:TBST to all wells. Incubate 45 min with shaking at room temperature. • 15. While the above is incubating, add 50 μl of solutions A & B from the ABC kit to 10 ml of TBST. These solutions must be combined approximately 30 min prior to use. • 16. Wash plates as in step 4. • 17. Add 100 μl of the preformed A & B complex to all wells. Incubate 30 min with shaking at room temperature. • 18. Wash plates as in step 4. • 19. Add 100 μl turbo-TMB. Shake at room temperature for 10-15 min. • 20. When the color in the positive control wells reaches an absorbance of about 0.35-0.4, stop the reaction with 100 μl of turbo-TMB stop solution. • 21. Read plates on Dynatech MR7000 ELISA reader, test filter: 450 nM, reference filter: 410 nM.

T1 sequence (P35968 20-1356): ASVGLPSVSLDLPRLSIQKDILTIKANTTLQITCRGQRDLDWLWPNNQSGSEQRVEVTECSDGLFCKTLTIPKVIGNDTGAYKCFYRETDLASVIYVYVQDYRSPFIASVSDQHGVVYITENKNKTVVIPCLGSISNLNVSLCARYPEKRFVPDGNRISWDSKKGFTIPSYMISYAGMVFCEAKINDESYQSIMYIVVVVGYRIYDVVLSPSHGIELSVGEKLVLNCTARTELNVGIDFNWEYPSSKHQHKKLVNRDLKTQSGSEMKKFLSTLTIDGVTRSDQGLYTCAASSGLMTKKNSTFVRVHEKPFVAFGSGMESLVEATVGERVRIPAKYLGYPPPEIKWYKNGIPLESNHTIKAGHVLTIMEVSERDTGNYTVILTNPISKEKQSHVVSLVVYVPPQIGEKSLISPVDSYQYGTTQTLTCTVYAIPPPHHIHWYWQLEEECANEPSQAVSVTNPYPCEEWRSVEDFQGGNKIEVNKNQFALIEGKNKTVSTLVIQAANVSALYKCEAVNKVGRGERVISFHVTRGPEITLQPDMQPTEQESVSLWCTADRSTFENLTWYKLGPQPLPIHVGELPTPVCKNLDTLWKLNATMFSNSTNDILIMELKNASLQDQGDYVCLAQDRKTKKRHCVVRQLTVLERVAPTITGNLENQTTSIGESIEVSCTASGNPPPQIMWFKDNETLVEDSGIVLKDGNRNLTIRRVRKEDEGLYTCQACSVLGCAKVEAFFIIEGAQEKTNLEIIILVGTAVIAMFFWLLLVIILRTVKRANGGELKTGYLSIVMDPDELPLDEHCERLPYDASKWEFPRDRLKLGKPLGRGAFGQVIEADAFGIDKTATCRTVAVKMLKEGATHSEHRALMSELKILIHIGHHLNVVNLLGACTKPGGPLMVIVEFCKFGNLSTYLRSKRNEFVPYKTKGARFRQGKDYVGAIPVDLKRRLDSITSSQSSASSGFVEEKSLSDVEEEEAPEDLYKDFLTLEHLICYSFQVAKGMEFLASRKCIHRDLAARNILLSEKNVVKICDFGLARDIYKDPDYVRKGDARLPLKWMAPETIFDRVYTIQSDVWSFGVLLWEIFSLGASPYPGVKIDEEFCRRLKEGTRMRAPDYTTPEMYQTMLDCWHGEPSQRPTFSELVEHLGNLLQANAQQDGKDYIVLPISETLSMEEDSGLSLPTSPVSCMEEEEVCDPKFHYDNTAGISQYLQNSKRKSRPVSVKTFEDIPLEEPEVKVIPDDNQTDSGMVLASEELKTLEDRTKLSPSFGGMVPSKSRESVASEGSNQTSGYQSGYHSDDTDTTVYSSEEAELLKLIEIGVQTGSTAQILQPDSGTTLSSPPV

- IC50: 4.2 µM
Compound: Cc1c(/C=C2\C(=O)Nc3ccc(C(=O)O)cc32)[nH]c2ccccc12 [Example 156, 3-(3-Methyl-1H-indol-2-ylmethylene)-2-oxo-2,3-dihydro-1H-indole-5-carboxylic acid (piperidine salt)]

Source: patent US6855730B2, “3-methylidenyl-2-indolinone modulators of protein kinase” (Sugen, Inc., priority 1998, dated 2005)
